In one assay the target is T1, JAK1 (Homo sapiens, UniProt P23458).
T1 construct: endogenous in cells; host or cells: mixed Molt4/Ramos cell lysate (1:2)
The assay is described as follows: Kinobeads assay with antibody detection, JAK1. The assay is classed as binding. Particulars: mixed Molt4/Ramos lysate, read-out: JAK1 inhibition value (IC50). The method, then:
(§1) The compounds of the present invention as described in the previous examples were tested in a Kinobeads™ assay as described for ZAP-70 (WO-A 2007/137867). Briefly, test compounds (at various concentrations) and the affinity matrix with the immobilized aminopyrido-pyrimidine ligand 24 were added to cell lysate aliquots and allowed to bind to the proteins in the lysate sample. After the incubation time the beads with captured proteins were separated from the lysate. Bound proteins were then eluted and the presence of JAK1; JAK2, JAK3 and TYK2 was detected and quantified using specific antibodies in a dot blot procedure and the Odyssey infrared detection system. Dose response curves for individual kinases were generated and IC50 values calculated. Kinobeads™ assays for ZAP-70 (WO-A 2007/137867) and for kinase selectivity profiling (WO-A 2006/134056) have been previously described.
(§2) 5×DP buffer: 250 mM Tris-HCl pH 7.4, 25% Glycerol, 7.5 mM MgCl2, 750 mM NaCl, 5 mM Na3VO4; filter the 5×DP buffer through a 0.22 μm filter and store in aliquot at −80° C. The 5×DP buffer is diluted with H2O to 1×DP buffer containing 1 mM DTT and 25 mM NaF.
(§3) Stock solutions of test compounds were prepared in DMSO. In a 96 well plate 30 μL solution of diluted test compounds at 5 mM in DMSO were prepared. Starting with this solution a 1:3 dilution series (9 steps) was prepared. For control experiments (no test compound) a buffer containing 2% DMSO was used.
(§4) Molt4 cells (ATCC catalogue number CRL-1582) and Ramos cells (ATCC catalogue number CRL-1596) were grown in 1 L Spinner flasks (Integra Biosciences, #182101) in suspension in RPMI 1640 medium (Invitrogen, #21875-034) supplemented with 10% Fetal Bovine Serum (Invitrogen) at a density between 0.15×10^6 and 1.2×10^6 cells/mL. Cells were harvested by centrifugation, washed once with 1×PBS buffer (Invitrogen, #14190-094) and cell pellets were frozen in liquid nitrogen and subsequently stored at −80° C. Cells were homogenized in a Potter S homogenizer in lysis buffer: 50 mM Tris-HCl, 0.8% NP40, 5% glycerol, 150 mM NaCl, 1.5 mM MgCl2, 25 mM NaF, 1 mM sodium vanadate, 1 mM DTT, pH 7.5. One complete EDTA-free tablet (protease inhibitor cocktail, Roche Diagnostics, 1873580) per 25 mL buffer was added. The material was dounced 10 times using a mechanized POTTER S, transferred to 50 mL falcon tubes, incubated for 30 minutes on ice and spun down for 10 minutes at 20,000 g at 4° C. (10,000 rpm in Sorvall SLA600, precooled). The supernatant was transferred to an ultracentrifuge (UZ)-polycarbonate tube (Beckmann, 355654) and spun for 1 hour at 100.000 g at 4° C. (33.500 rpm in Ti50.2, precooled). The supernatant was transferred again to a fresh 50 mL falcon tube, the protein concentration was determined by a Bradford assay (BioRad) and samples containing 50 mg of protein per aliquot were prepared. The samples were immediately used for experiments or frozen in liquid nitrogen and stored frozen at −80° C.
(§5) Cell lysate (approximately 50 mg protein per plate) was thawed in a water bath at room temperature and then stored on ice. To the thawed cell lysate 1×DP 0.8% NP40 buffer containing protease inhibitors (1 tablet for 25 mL buffer; EDTA-free protease inhibitor cocktail; Roche. Diagnostics 1873580) was added in order to reach a final protein concentration of 10 mg/mL total protein. The diluted cell lysate was stored on ice. Mixed Molt4Ramos lysate was prepared by combining one volume of Molt4 lysate and two volumes of Ramos lysate (ratio 1:2).
(§6) Plates were sealed and incubated for 3 hours in a cold room on a plate shaker (Heidolph tiramax 1000) at 750 rpm. Afterwards the plate was washed 3 times with 230 μL washing buffer (1×DP 0.4% NP40). The filter plate was placed on top of a collection plate (Greiner bio-one, PP-microplate 96 well V-shape, 65120) and the beads were then eluted with 20 μL of sample buffer (100 mM Tris, pH 7.4, 4% SDS, 0.00025% bromophenol blue, 20% glycerol, 50 mM DTT). […]

A further assay has as its target T2, JAK2 (Homo sapiens, UniProt O60674).
T2 construct: endogenous in cells; host or cells: mixed Molt4/Ramos cell lysate (1:2)
Briefly: Kinobeads assay with antibody detection, JAK2. Type of assay: binding. To be noted: mixed Molt4/Ramos lysate, read-out: JAK2 inhibition value (IC50). The method, then:
as §1, §2, §3, §4, §5, §6

The target of the next assay is T3, Tyk2 (Homo sapiens, UniProt P29597).
T3 construct: endogenous in cells; host or cells: mixed Molt4/Ramos cell lysate (1:2)
The assay is described as follows: Kinobeads assay with antibody detection, TYK2. Type of assay: binding. To be noted: mixed Molt4/Ramos lysate, read-out: Tyk2 inhibition value (IC50). The procedure: as §1, §2, §3, §4, §5, §6

For a further assay, the target named is T4, JAK3 (Homo sapiens, UniProt P52333).
T4 sequence (P52333 1-1124): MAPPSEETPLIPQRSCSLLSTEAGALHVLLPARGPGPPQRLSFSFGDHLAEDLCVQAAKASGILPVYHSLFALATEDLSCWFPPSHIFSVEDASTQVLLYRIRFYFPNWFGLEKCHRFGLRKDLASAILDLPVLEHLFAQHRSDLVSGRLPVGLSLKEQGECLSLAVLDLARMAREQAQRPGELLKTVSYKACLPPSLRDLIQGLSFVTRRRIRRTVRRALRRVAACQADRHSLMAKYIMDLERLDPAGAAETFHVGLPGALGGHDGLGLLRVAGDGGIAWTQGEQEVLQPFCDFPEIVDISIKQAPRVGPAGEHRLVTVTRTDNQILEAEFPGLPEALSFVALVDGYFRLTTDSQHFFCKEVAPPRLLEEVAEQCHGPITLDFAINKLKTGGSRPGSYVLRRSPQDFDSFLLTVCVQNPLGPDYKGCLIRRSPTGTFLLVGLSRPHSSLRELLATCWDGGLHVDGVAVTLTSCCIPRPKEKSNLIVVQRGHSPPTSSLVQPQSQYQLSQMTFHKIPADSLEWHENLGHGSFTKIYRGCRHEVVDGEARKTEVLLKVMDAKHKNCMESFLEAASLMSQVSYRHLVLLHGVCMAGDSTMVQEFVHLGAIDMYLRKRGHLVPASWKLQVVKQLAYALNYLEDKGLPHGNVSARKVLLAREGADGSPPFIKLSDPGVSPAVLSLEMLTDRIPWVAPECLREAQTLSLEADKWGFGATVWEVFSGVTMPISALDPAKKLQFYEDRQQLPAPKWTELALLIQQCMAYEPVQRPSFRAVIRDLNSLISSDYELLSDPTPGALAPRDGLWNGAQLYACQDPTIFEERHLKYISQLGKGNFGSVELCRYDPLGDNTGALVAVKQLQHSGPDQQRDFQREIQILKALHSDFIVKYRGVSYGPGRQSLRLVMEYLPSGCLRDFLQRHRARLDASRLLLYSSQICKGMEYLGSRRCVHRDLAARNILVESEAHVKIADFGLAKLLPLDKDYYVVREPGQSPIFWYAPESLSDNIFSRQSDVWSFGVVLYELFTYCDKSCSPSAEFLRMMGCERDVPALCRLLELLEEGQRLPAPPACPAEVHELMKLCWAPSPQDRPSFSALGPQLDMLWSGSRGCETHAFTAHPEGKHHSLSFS
Briefly: Kinobeads assay with antibody detection, JAK3. Type of assay: binding. The arrangement: endogenous in cells; host or cells: mixed Molt4/Ramos cell lysate (1:2). To be noted: mixed Molt4/Ramos lysate, read-out: JAK3 inhibition value (IC50). The method, then: as §1, §2, §3, §4, §5, §6

The test system of assay [1] is NOD mouse model of type I diabetes. To be noted: cited from earlier work.
The next assay concerns GVHD. Particulars: Cetkovic-Cvrlje and Ucken, 2004; cited from earlier work.
The test system of assay [2] is STAT5 phosphorylation in IL-2 stimulated YT cells. The assay is described as follows: Cell assay with washout of compounds (pSTAT5, YT cells, MSD). The assay is classed as cell-based, human. The procedure:
This time course experiment allows determination as to whether the pharmacological effect of the tested compounds persists over time even after the compound is removed from the cell samples.
Human YT cells were grown as described above. Cells were harvested by centrifugation and resuspended in RPMI0.5% heat-inactivated FBS. 3×10^5 cells were seeded in 60 μl per well in a round-bottomed 96 well plate (BD-Falcon, 353077).
Test compounds were dissolved in DMSO and a 1:3 dilution series (9 steps) was prepared. To generate a dose response curve, 30 μl of fourfold concentrated compound in 4% DMSO/RPMI/0.5% FBS were added to each cell sample in the 96 well plate resulting in a final DMSO concentration of 1% DMSO. Cells were incubated for one hour in a humidified incubator (37° C., 5% CO2). After incubation cells were washed twice by centrifugation and replacement of media (RPMI/0.5% FBS), with the exception of the time 0 plate. Washed cells were incubated for 30 min, 1, 2 and 4 hours in a humidified incubator (37° C., 5% CO2) prior to stimulation with IL-2. To each well 30 μl of a fourfold concentrated IL-2 solution (Recombinant human IL-2, Peprotech 200-02; 120 nM solution in RPMI) was added and incubated for 30 minutes at room temperature. Cells were lysed by adding 30 μl of 5× lysis buffer (MSD lysis buffer) and incubated for 10 minutes at 4° C. with gentle shaking.
The effect of compounds on STATS phosphorylation was determined in lysates using the MSD MULTI-SPOT® 96 4-spot phosphor-STAT5a,b whole cell lysatc kit (MesoScale Discovery, K150IGD-3) according to the manufacturer's protocol. Data were analysed in BioAssay using the nonlinear regression for a sigmoidal dose-response with a variable slope and IC50 values were determined.

Assay [3] deals with animal model of organ transplantation. Particulars: Changelian et al., 2003; cited from earlier work.
Where [4] appears, read: IL-2 stimulated YT cells, 0 min (no wash).

Molecules are shown by their SMILES. Where “and” joins values, the source holds several entries; their conditions need not be identical. Identical values can stand only once.

T2 sequence (O60674 whole entry): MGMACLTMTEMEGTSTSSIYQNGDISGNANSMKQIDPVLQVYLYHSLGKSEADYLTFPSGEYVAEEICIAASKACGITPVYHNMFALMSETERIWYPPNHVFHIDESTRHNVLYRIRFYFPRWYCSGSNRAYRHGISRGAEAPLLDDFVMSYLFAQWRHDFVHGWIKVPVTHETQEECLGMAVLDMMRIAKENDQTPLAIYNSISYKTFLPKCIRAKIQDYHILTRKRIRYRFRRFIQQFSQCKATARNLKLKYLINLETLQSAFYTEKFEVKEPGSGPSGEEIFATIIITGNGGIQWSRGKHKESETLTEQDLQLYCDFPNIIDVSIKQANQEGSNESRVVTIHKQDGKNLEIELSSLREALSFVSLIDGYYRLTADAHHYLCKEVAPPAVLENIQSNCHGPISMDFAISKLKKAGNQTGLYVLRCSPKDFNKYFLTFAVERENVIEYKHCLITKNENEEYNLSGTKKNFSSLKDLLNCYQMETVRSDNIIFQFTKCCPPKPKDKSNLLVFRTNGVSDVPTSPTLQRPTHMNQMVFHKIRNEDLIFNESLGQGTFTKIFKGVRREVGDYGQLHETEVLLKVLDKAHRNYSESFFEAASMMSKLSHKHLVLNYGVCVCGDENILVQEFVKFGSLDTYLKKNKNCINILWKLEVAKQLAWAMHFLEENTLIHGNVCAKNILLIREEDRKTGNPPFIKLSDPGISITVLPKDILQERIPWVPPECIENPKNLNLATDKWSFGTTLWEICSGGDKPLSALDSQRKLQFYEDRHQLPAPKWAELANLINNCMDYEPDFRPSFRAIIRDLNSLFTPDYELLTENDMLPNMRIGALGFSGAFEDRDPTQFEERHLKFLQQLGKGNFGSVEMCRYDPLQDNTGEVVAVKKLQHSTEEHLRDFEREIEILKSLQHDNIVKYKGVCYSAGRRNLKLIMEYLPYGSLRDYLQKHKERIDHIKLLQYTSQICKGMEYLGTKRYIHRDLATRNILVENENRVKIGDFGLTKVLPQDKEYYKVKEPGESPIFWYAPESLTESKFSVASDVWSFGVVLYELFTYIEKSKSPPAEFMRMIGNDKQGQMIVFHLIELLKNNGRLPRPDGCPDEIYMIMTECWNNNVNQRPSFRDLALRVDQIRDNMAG
T3 sequence (P29597 whole entry): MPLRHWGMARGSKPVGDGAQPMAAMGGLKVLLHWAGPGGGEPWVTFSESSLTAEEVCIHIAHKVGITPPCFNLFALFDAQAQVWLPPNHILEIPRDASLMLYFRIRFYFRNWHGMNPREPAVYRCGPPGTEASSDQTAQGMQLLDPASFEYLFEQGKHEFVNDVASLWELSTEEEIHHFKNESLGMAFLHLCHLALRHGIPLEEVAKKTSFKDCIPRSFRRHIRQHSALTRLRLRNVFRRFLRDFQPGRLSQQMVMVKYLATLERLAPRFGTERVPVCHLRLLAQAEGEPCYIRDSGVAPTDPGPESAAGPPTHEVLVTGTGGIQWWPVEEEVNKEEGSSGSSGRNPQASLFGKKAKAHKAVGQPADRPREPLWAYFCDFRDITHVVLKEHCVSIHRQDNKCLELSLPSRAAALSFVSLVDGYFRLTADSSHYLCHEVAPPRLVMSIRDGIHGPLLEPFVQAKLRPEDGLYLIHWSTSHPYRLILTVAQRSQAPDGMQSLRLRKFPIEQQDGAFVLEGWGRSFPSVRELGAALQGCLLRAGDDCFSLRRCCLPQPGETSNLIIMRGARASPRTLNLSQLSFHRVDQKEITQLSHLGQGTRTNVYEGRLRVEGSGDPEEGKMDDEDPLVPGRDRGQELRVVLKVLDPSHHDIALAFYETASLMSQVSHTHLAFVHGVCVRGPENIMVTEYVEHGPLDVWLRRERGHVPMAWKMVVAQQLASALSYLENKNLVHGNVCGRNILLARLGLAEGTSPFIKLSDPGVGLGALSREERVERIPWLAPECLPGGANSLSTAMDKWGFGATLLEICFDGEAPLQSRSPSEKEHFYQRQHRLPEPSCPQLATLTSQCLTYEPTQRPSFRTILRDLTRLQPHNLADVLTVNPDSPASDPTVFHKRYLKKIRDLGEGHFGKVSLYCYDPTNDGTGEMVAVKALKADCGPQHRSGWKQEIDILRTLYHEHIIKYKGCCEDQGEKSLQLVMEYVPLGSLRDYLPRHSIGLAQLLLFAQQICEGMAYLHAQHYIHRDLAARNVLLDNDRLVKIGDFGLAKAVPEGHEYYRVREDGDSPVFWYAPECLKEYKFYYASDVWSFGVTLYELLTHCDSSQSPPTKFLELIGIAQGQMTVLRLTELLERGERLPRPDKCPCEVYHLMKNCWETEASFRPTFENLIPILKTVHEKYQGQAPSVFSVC
T1 sequence (P23458 whole entry): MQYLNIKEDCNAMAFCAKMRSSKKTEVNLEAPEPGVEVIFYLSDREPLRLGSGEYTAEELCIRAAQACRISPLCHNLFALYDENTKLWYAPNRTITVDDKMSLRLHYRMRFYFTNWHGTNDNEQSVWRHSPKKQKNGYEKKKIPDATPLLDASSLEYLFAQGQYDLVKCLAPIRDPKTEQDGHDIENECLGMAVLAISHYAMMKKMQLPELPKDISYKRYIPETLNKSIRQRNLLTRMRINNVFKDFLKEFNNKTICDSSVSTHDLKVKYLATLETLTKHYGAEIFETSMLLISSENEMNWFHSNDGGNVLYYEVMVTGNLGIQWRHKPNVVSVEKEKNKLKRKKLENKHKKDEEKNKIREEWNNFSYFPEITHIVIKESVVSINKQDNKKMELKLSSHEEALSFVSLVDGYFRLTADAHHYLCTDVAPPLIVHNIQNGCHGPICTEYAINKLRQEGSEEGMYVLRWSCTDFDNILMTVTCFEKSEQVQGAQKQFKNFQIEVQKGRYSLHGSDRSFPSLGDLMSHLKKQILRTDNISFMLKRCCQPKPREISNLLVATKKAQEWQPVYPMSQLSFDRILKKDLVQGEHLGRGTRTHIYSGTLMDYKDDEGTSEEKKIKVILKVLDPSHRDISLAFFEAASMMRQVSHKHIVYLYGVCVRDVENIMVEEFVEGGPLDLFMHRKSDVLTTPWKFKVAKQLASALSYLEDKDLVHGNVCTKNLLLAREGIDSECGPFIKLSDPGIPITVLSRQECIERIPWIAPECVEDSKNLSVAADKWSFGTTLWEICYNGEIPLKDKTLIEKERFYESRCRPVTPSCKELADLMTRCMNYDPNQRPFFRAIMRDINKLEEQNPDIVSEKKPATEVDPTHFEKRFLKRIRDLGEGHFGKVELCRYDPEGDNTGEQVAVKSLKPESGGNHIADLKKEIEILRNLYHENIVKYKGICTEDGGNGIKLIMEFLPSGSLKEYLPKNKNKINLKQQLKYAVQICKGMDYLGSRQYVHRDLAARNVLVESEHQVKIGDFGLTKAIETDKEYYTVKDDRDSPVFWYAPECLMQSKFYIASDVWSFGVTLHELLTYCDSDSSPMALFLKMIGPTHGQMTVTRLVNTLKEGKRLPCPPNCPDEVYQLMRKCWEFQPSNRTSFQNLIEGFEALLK

Turning to `CC(C)=CC(=O)Nc1cccc(Cn2ncc3cnc(Nc4cnn(C)c4)nc32)c1` [Example 6, 3-Methyl-N-(3-((6-((1-methyl-1H-pyrazol-4-yl)amino)-1H-pyrazolo[3,4-d]pyrimidin-1-yl)methyl)phenyl)but-2-enamide], the IC50 is over 10 µM at JAK1, over 10 µM at JAK2, over 10 µM on Tyk2 and 1.31 µM at JAK3.
Turning to `C=CC(=O)Nc1cccc(Cn2ncc3cnc(Nc4ccn(C)n4)cc32)c1` [Example 8, N-(3-((6-((1-Methyl-1H-pyrazol-3-yl)amino)-1H-pyrazolo[4,3-c]pyridin-1-yl)methyl)phenyl)acrylamide], the IC50 at JAK1 is over 10 µM; on JAK2 it was over 10 µM; at Tyk2, over 10 µM; on JAK3 it was 0.005 µM.
Take `C=CC(=O)Nc1cccc(Cn2ccc3cnc(Nc4cnn(C)c4)nc32)c1` [Example 9, N-(3-((2-((1-Methyl-1H-pyrazol-4-yl)amino)-7H-pyrrolo[2,3-d]pyrimidin-7-yl)methyl)phenyl)acrylamide]: the IC50 is 9.42 µM on JAK1, over 10 µM at JAK2, 8.08 µM at Tyk2 and 0.003 µM on JAK3.
The matching figures for `C=CC(=O)Nc1cccc(Cn2ncc3cnc(Nc4cnn(C)c4)cc32)c1` [Example 10, N-(3-((6-((1-Methyl-1H-pyrazol-4-yl)amino)-1H-pyrazolo[4,3-c]pyridin-1-yl)methyl)phenyl)acrylamide]: 5.37 µM, over 10 µM, 5.08 µM and 0.001 µM.
Consider `COc1cc2ncnc(Nc3ccc(O)cc3)c2cc1OC` [JANEX-1], for which the “spontaneous autoimmune diabetes development” value in assay [1] is reported as “prevent spontaneous autoimmune diabetes development”. In the assay with GVHD, the “severity of GVHD” value was “attenuate the severity of GVHD”.
As to `Cn1cc(Nc2ncc3cnn(Cc4cccc(NC5COC5)c4)c3n2)cn1` [Reference example 1, N-(1-methyl-1H-pyrazol-4-yl)-1-(3-(oxetan-3-ylamino)benzyl)-1H-pyrazolo[3,4-d]pyrimidin-6-amine], the IC50 in assay [2] (Homo sapiens, 0 h, IL-2 stimulated YT cells, 0 min (no wash), read-out: pSTAT5 inhibition pIC50, 0 min (no wash) (converted)) is 1.58 µM. Moreover, in assay [2] (setting [4]), the “pSTAT5 inhibition pIC50, 0 min (no wash)” value was 5.7. In assay [2] (IL-2 stimulated YT cells), the “pSTAT5 inhibition pIC50, 30 min after washout” value is “inactive”; the “pSTAT5 inhibition pIC50, 1 hour after washout” value was “inactive”; the “pSTAT5 inhibition pIC50, 2 hours after washout” value was “inactive”; the “pSTAT5 inhibition pIC50, 4 hours after washout” value is “inactive”.
`C[C@@H]1CCN(C(=O)CC#N)C[C@@H]1N(C)c1ncnc2[nH]ccc12` [Reference example 3, CP 690,550]: the “pSTAT5 inhibition pIC50, 0 min (no wash)” value in assay [2] (setting [4]) was 7.6 and 7.8. In assay [2] (IL-2 stimulated YT cells), the “pSTAT5 inhibition pIC50, 30 min after washout” value is reported as 5.1; the “pSTAT5 inhibition pIC50, 1 hour after washout” value was “inactive”; the “pSTAT5 inhibition pIC50, 2 hours after washout” value is “inactive”; the “pSTAT5 inhibition pIC50, 4 hours after washout” value is on record as “Inactive”. In addition, the “activity 30 minutes after the washing of cells” value in assay [2] (YT cells, 30 minutes after washing) is given as “significant drop in activity”. The “inhibition activity 1 hour after washing” value in assay [2] (YT cells, 1 hour after washing) was “completely lost”. The “efficacy in organ transplantation model” value in assay [3] is given as “show efficacy in an animal model of organ transplantation”.
